The values that follow come from ChEMBL document CHEMBL4033685, “C21-steroidal pregnane sapogenins and their derivatives as anti-inflammatory agents” (Bioorg Med Chem, 2017).

pEC50: −log10 of the molar value. The source made the active and inactive calls. The calls are words filed in the database; no cut-off is given here.

Data set [1] concerns the target T1, Toll-like receptor 4 (Homo sapiens, UniProt O00206). As to the kind of experiment: Antagonist activity at TLR4 (unknown origin) expressed in human AD293 cells assessed as inhibition of LPS/ATP-stimulated TLR4/NF-kB signaling pathway at 10 uM after 16 hrs by luciferase reporter gene assay. In kind it is cell-based. In general terms: A reporter such as luciferase makes a cellular process visible.

Data set [2] deals with AD293. Kind of data set: Cytotoxicity against human AD293 cells assessed as reduction in cell viability at 10 uM after 24 hrs by methylene blue dye based spectrophotometric method. The note with it: ad293, 24 h.
Data set [3] has as its target T1, Toll-like receptor 4. Kind of data set: Antagonist activity at TLR4 in human THP1 cells assessed as inhibition of LPS-stimulated IL-6 mRNA level at 10 uM after 16 hrs by RT-PCR method. In kind it is cell-based.
Data set [4] has as its target T1, Toll-like receptor 4. Kind of data set: Antagonist activity at TLR4 in human THP1 cells assessed as inhibition of LPS-stimulated RANTES mRNA level at 10 uM after 16 hrs by RT-PCR method. The class given is cell-based.
The target of data set [5] is T1, Toll-like receptor 4. Kind of data set: Antagonist activity at TLR4 (unknown origin) expressed in human AD293 cells assessed as inhibition of LPS/ATP-stimulated TLR4/NF-kB signaling pathway after 16 hrs by luciferase reporter gene assay. In kind it is cell-based.
Data set [6] concerns AD293. As to the kind of experiment: Cytotoxicity against human AD293 cells assessed as reduction in cell viability after 24 hrs by methylene blue dye based spectrophotometric method. The note with it: ad293, 24 h.
For a further data set, the species on record is Homo sapiens. As to the kind of experiment: Inhibition of TNFalpha-stimulated NF-kB signaling pathway (unknown origin) expressed in human AD293 cells after 4 hrs by luciferase reporter gene assay. The class given is cell-based.

T1 sequence (O00206 whole entry): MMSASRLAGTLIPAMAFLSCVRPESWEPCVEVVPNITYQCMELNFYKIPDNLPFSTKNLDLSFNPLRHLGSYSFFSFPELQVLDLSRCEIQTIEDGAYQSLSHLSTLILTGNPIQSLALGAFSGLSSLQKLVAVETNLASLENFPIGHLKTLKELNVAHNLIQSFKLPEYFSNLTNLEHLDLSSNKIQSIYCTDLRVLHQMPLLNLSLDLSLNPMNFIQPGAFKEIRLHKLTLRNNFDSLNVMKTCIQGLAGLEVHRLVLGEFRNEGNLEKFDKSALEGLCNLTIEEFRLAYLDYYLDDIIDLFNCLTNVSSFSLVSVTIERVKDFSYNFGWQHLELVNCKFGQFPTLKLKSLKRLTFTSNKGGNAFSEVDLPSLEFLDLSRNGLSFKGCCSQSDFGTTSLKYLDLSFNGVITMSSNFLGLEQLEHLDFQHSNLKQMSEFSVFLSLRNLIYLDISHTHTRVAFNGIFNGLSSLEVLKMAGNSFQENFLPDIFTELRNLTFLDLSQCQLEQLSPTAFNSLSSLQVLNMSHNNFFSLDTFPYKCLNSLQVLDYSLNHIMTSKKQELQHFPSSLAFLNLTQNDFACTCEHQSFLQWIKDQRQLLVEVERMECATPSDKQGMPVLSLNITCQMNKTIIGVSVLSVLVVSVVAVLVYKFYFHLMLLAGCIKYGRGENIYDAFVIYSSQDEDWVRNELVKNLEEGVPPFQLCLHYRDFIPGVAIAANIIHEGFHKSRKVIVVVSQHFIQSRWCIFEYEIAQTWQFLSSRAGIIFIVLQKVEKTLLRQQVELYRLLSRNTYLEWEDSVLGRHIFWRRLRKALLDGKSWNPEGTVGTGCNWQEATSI

As to `CC(=O)O[C@H]1CC[C@@]2(C)C(=CC[C@]3(O)[C@@H]2C[C@@H](OC(=O)/C=C/c2ccccc2)[C@@]2(C)[C@]3(O)CC[C@@]2(O)C(C)=O)C1`, the inhibition result at Toll-like receptor 4 [1] is “inactive”. Also, in the data set on AD293 [2], the Activity result was “Toxic”.
On to `CC(=O)[C@]1(OS(C)(=O)=O)CC[C@@]2(O)[C@]1(C)[C@H](OC(=O)c1ccc(O)cc1)C[C@@H]1[C@@]3(C)CC[C@H](OS(C)(=O)=O)CC3=CC[C@]12O`, for which, on Toll-like receptor 4 [1], the inhibition entry is “inactive”. For the same compound, the Activity result in the data set with AD293 [2] is “Toxic”.
The matching figures for `CC(=O)[C@]1(OC(=O)c2ccc(Cl)nc2)CC[C@@]2(O)[C@]1(C)[C@H](OC(=O)c1ccc(O)cc1)C[C@@H]1[C@@]3(C)CC[C@H](OC(=O)c4ccc(Cl)nc4)CC3=CC[C@]12O`: “inactive” and “Toxic”.
Consider `CC(=O)O[C@H]1CC[C@@]2(C)C(=CC[C@]3(O)[C@@H]2C[C@@H](OC(=O)c2ccc(O)cc2)[C@@]2(C)[C@]3(O)CC[C@@]2(O)C(C)=O)C1`, for which the inhibition entry at Toll-like receptor 4 [3] and on Toll-like receptor 4 [4] was “inactive” in each case.
In the case of `CC(=O)[C@]1(O)CC[C@@]2(O)[C@]1(C)[C@H](OC(=O)/C=C/c1ccccc1)C[C@@H]1[C@@]3(C)CC[C@H](O)CC3=CC[C@]12O`, the inhibition result at Toll-like receptor 4 [1] is “inactive”. The Activity result in the data set with AD293 [2] was “Toxic”.
The matching figures for `C[C@H]1O[C@@H]2C[C@@H]3[C@@]4(C)CC[C@H](O)CC4=CC[C@@]3(O)[C@@]3(O)CC[C@]1(OC(=O)/C=C/c1ccccc1)[C@@]23C`: “inactive” and “Toxic”.
As to `COc1cc(/C=C/C(=O)O[C@H]2CC[C@@]3(C)C(=CC[C@]4(O)[C@@H]3C[C@H]3O[C@H](C)[C@]5(OC(=O)/C=C/c6ccccc6)CC[C@@]4(O)[C@]35C)C2)cc(OC)c1OC`, on Toll-like receptor 4 [1], the inhibition entry is “inactive”. Also, the Activity result in the data set with AD293 [2] is given as “Toxic”.
The matching figures for `CC(=O)[C@]1(O)CC[C@@]2(O)[C@]1(C)[C@H](OC(=O)/C=C(\C)C(C)C)C[C@@H]1[C@@]3(C)CCC(OC(=O)CCl)CC3=CC[C@]12O` (stereo partly specified): “inactive” and “Toxic”.
As to `CC(=O)[C@]1(O)CC[C@@]2(O)[C@]1(C)[C@H](OC(=O)c1ccc(O)cc1)C[C@@H]1[C@@]3(C)CCC(=O)CC3=CC[C@]12O`, the inhibition entry on Toll-like receptor 4 [1] was “inactive”. For the same compound, the Activity result with AD293 [2] was “Toxic”.
`CC(=O)[C@]1(O)CC[C@@]2(O)[C@]1(C)[C@H](OC(=O)/C=C(\C)C(C)C)C[C@@H]1[C@@]3(C)CC[C@H](OC(=O)c4ccc(Cl)nc4)CC3=CC[C@]12O`: the inhibition entry on Toll-like receptor 4 [3] and at Toll-like receptor 4 [4] was “inactive” in each case.
As for `CC(=O)[C@]1(O)CC[C@@]2(O)[C@]1(C)[C@H](OC(=O)/C=C(\C)C(C)C)C[C@@H]1[C@@]3(C)CC[C@H](OC(=O)/C=C/c4ccccc4)CC3=CC[C@]12O`, the inhibition entry at Toll-like receptor 4 [3] and on Toll-like receptor 4 [4] was “inactive” throughout.
In the case of `CC(=O)[C@]1(OC(=O)c2ccc([N+](=O)[O-])cc2)CC[C@@]2(O)[C@]1(C)[C@H](OC(=O)c1ccc(O)cc1)C[C@@H]1[C@@]3(C)CC[C@H](OC(=O)c4ccc([N+](=O)[O-])cc4)CC3=CC[C@]12O`, on Toll-like receptor 4 [1], the inhibition entry is “inactive”. Moreover, the Activity entry in the data set on AD293 [2] is recorded as “Toxic”.
The pEC50 is the negative decadic logarithm of the EC50, by convention in mol/L. In general, EC10 refers to the concentration needed for an effect of 10%. With `C[C@@H](OC(=O)c1cccnc1)[C@]1(O)CC[C@@]2(O)[C@]1(C)[C@H](OC(=O)/C=C/c1ccccc1)C[C@@H]1[C@@]3(C)C=CC(=O)C=C3C=C[C@]12O`, the pEC50 at Toll-like receptor 4 [5] was 5.20. The CC10 with AD293 [6] was above 10 µM. Further, the 10% effect concentration (EC10) in the data set listed under Homo sapiens is above 10 µM.
As to `COc1ccc(/C=C/C(=O)O[C@H]2CC[C@@]3(C)C(=CC[C@]4(O)[C@@H]3C[C@H]3O[C@H](C)[C@]5(OC(=O)/C=C/c6ccccc6)CC[C@@]4(O)[C@]35C)C2)cc1`, at Toll-like receptor 4 [1], the inhibition entry is “inactive”. Further, the Activity entry with AD293 [2] is on record as “Toxic”.
With `C[C@H]1O[C@@H]2C[C@@H]3[C@@]4(C)CC[C@H](OC(=O)/C=C/c5ccc([N+](=O)[O-])cc5)CC4=CC[C@@]3(O)[C@@]3(O)CC[C@]1(OC(=O)/C=C/c1ccccc1)[C@@]23C`, the inhibition entry at Toll-like receptor 4 [1] was “inactive”. For the same compound, the Activity entry in the data set on AD293 [2] was “Toxic”.
For the compound `C[C@H]1O[C@@H]2C[C@@H]3[C@@]4(C)CC[C@H](OC(=O)/C=C/c5ccccc5)CC4=CC[C@@]3(O)[C@@]3(O)CC[C@]1(OC(=O)/C=C/c1ccccc1)[C@@]23C`, the inhibition entry at Toll-like receptor 4 [1] was “inactive”. Moreover, in the data set on AD293 [2], the Activity result is “Toxic”.
The matching figures for `CC(=O)[C@]1(OC(=O)c2cccc3ccccc23)CC[C@@]2(O)[C@]1(C)[C@H](OC(=O)c1ccc(O)cc1)C[C@@H]1[C@@]3(C)CC[C@H](OC(=O)c4cccc5ccccc45)CC3=CC[C@]12O`: “inactive” and “Toxic”.
The matching figures for `CC(O)[C@]1(O)CC[C@@]2(O)[C@]1(C)[C@H](OC(=O)c1ccc(O)cc1)C[C@@H]1[C@@]3(C)CC[C@H](O)CC3=CC[C@]12O` (stereo partly specified): “inactive” and “Toxic”.
As for `COc1cc(/C=C/C(=O)O[C@H]2CC[C@@]3(C)C(=CC[C@]4(O)[C@@H]3C[C@@H](OC(=O)/C=C/c3ccccc3)[C@@]3(C)[C@]4(O)CC[C@@]3(O)C(C)=O)C2)cc(OC)c1OC`, the inhibition entry at Toll-like receptor 4 [1] is “inactive”. In addition, the Activity result in the data set on AD293 [2] was “Toxic”.
In the case of `CC(=O)[C@]1(O)CC[C@@]2(O)[C@]1(C)[C@H](OC(=O)c1ccccc1)C[C@@H]1[C@@]3(C)CC[C@H](O)CC3=CC[C@]12O`, the inhibition entry at Toll-like receptor 4 [3] and on Toll-like receptor 4 [4] was “inactive” each time.
In the case of `COc1ccc(/C=C/C(=O)O[C@H]2CC[C@@]3(C)C(=CC[C@]4(O)[C@@H]3C[C@@H](OC(=O)/C=C/c3ccccc3)[C@@]3(C)[C@]4(O)CC[C@@]3(O)C(C)=O)C2)cc1`, the inhibition result on Toll-like receptor 4 [1] was “inactive”. The Activity entry in the data set on AD293 [2] is given as “Toxic”.
`CC(=O)[C@]1(O)CC[C@@]2(O)[C@]1(C)[C@H](OC(=O)/C=C/c1ccccc1)C[C@@H]1[C@@]3(C)CC[C@H](OC(=O)/C=C/c4ccc([N+](=O)[O-])cc4)CC3=CC[C@]12O`: the inhibition entry on Toll-like receptor 4 [1] was “inactive”. For the same compound, the Activity result in the data set with AD293 [2] was “Toxic”.
The matching figures for `COc1cc(/C=C/C(=O)O[C@H]2CC[C@@]3(C)C(=CC[C@]4(O)[C@@H]3C[C@@H](OC(=O)c3ccc(O)cc3)[C@@]3(C)[C@]4(O)CC[C@@]3(OC(=O)/C=C/c3cc(OC)c(OC)c(OC)c3)C(C)=O)C2)cc(OC)c1OC`: “inactive” and “Toxic”.
Take `C[C@@H](OC(=O)c1cccnc1)[C@]1(O)CC[C@@]2(O)[C@]1(C)[C@H](OC(=O)/C=C/c1ccccc1)C[C@@H]1[C@@]3(C)CC[C@H](OC(=O)c4ccccc4)CC3=CC[C@]12O`: the pEC50 on Toll-like receptor 4 [5] is 4.96. The CC10 in the data set with AD293 [6] was above 10 µM. Besides, in the data set filed under Homo sapiens, the EC10 is above 10 µM.
`CC(=O)[C@]1(OC(=O)/C=C/c2ccc([N+](=O)[O-])cc2)CC[C@@]2(O)[C@]1(C)[C@H](OC(=O)c1ccc(O)cc1)C[C@@H]1[C@@]3(C)CC[C@H](OC(=O)/C=C/c4ccc([N+](=O)[O-])cc4)CC3=CC[C@]12O`: the inhibition result at Toll-like receptor 4 [1] is “inactive”. For the same compound, in the data set on AD293 [2], the Activity entry is given as “Toxic”.
On the same counts, the results for `CC(=O)[C@]1(O)CC[C@]23OC(C)(C)O[C@]24CC=C2C[C@@H](O)CC[C@]2(C)[C@H]4C[C@@H](OC(=O)c2ccc(O)cc2)[C@@]31C` are “inactive” and “Toxic”.
For `CC(=O)[C@]1(O)CC[C@@]2(O)[C@]1(C)[C@H](OC(=O)/C=C(\C)C(C)C)C[C@@H]1[C@@]3(C)CCC(=O)CC3=CC[C@]12O`, at Toll-like receptor 4 [5], the pEC50 is 4.93. For the same compound, the EC10 with AD293 [6] and in the data set filed under Homo sapiens was above 10 µM in each case.
With `CC(=O)[C@]1(O)CC[C@@]2(O)[C@]1(C)[C@H](OC(=O)/C=C(\C)C(C)C)C[C@@H]1[C@@]3(C)CC[C@H](Cl)CC3=CC[C@]12O`, the pEC50 at Toll-like receptor 4 [5] was 4.92. In addition, the CC10 in the data set on AD293 [6] was above 10 µM. In the data set filed under Homo sapiens, this compound displayed an EC10 above 10 µM.
As to `CC(=O)[C@]1(O)CC[C@@]2(O)[C@]1(C)[C@H](OC(=O)c1ccc(O)cc1)C[C@@H]1[C@@]3(C)CC[C@H](Br)CC3=CC[C@]12O`, on Toll-like receptor 4 [1], the inhibition result is “inactive”. The Activity result with AD293 [2] is listed as “Toxic”.
Take `CCC(=O)O[C@H]1CC[C@@]2(C)C(=CC[C@]3(O)[C@@H]2C[C@@H](OC(=O)c2ccc(O)cc2)[C@@]2(C)[C@]3(O)CC[C@@]2(OC(=O)CC)C(C)=O)C1`: the inhibition entry at Toll-like receptor 4 [1] is “inactive”. Also, in the data set with AD293 [2], the Activity result is “Toxic”.
Consider `C[C@@H](OC(=O)c1cccnc1)[C@]1(O)CC[C@@]2(O)[C@]1(C)[C@H](OC(=O)/C=C/c1ccccc1)C[C@@H]1[C@@]3(C)CC[C@H](OC(=O)/C=C/c4ccc([N+](=O)[O-])cc4)CC3=CC[C@]12O`, for which the pEC50 at Toll-like receptor 4 [5] is 4.85. The CC10 in the data set on AD293 [6] was above 10 µM. The compound further registered an EC10 in the data set listed under Homo sapiens above 10 µM.
Regarding `CC(=O)[C@]1(O)CC[C@@]2(O)[C@]1(C)[C@H](OC(=O)c1ccc(O)cc1)C[C@@H]1[C@@]3(C)CC[C@H](O)CC3=CC[C@]12O`, the inhibition result on Toll-like receptor 4 [1] was “inactive”. In the data set with AD293 [2], the Activity result is “Toxic”.
The matching figures for `CC(=O)[C@]1(O)CC[C@@]2(O)[C@]1(C)[C@H](OC(=O)/C=C(\C)C(C)C)C[C@@H]1[C@@]3(C)CC[C@H](O)CC3=CC[C@]12O` [CAUDATIN]: “inactive” and “Toxic”.
